Test systems include DLD-1 colon; HS 578T breast; KM12 colon; KM20L2 colon; MDA-MB-435; RPMI-8226 leukemia; SK-OV-3 ovarian; SNB-19 CNS; SNB-78 CNS; T-47D breast.
Common to all, as to test: DTP human tumour cell line panel, 48 h

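Compound exposure: 48 hours, 5 concentrations, 96-well plates. Definition used: TGI = concentration required for complete inhibition of growth.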

Consider `O=C1C=C(Br)c2c(-c3ccccc3)oc3cccc1c23`, for which the TGI with DLD-1 colon was over 100 µM; with HS 578T breast, over 100 µM; with KM12 colon, over 100 µM; with KM20L2 colon, over 100 µM; in the assay on MDA-MB-435, over 100 µM; in the assay with RPMI-8226 leukemia it was over 79 µM. Moreover, the TGI with SK-OV-3 ovarian, with SNB-19 CNS, in the assay with SNB-78 CNS and in the assay on T-47D breast was over 100 µM in each case.

One may read the TGI as the concentration at which net growth stops. Lower therefore signals more potent growth arrest.

The values are drawn from PubChem BioAssay (NCI).
